PubChem BioAssay AID2060906 (Molecular Pharmacology Branch, DTP, NCI, 2025)

System: 485176-168-R4-J1-PDC complex spheroid growth
Assay: Anticancer human tumor 485176-168-R4-J1-PDC patient-derived pancreatic adenocarcinoma cell line growth inhibition [RAS]
Settings: for viability, T/C: stronger effect = lower value
Method in brief: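 Multi-cell-type spheroids: tumor cells plus HUVEC endothelial cells and mesenchymal stem cells. RAS-pathway inhibitors were combined with targeted agents, each dosed in half-log steps down from clinical Cmax, or from 10 microM when Cmax was unknown.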
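Also: spheroids exposed to compounds for seven days before readout.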
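For viability, T/C in this document: luminescence viability expressed relative to DMSO vehicle wells set as 100%.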

SMILES: CC(Nc1ccc2c(c1)OCCn1cc(N3C(=O)OCC3C(F)F)nc1-2)C(N)=O (stereo unspecified) + CCn1c(-c2cccnc2C(C)OC)c2c3cc(ccc31)N1CCOC(CC(NC(=O)C(C(C)C)N(C)C(=O)C3(F)CCN(C(=O)C#CC(C)(C)N(C)C)CC3)C(=O)N3CCCC(N3)C(=O)OCC(C)(C)C2)C1
- IC50 (curve of first compound, second compound 0.000949 µM): 8610 nM
- IC50 (curve of first compound, second compound 0.003 µM): 8690 nM
- IC50 (curve of first compound, second compound 0.00949 µM): 9140 nM
- IC50 (curve of first compound, second compound 0.03 µM): > 10000 nM
- IC50 (curve of first compound, second compound 0.0949 µM): > 10000 nM
- IC50 (curve of first compound, second compound 0.3 µM): 5260 nM
- viability, T/C (second compound 0.000949 µM, first compound 0.0316 µM): 92.9%
- viability, T/C (second compound 0.000949 µM, first compound 0.1 µM): 73.4%
- viability, T/C (second compound 0.000949 µM, first compound 0.316 µM): 93.6%
- viability, T/C (second compound 0.000949 µM, first compound 1 µM): 77.1%
- viability, T/C (second compound 0.000949 µM, first compound 3.16 µM): 84.2%
- viability, T/C (second compound 0.000949 µM, first compound 10 µM): 45%
- viability, T/C (second compound 0.003 µM, first compound 0.0316 µM): 97.2%
- viability, T/C (second compound 0.003 µM, first compound 0.1 µM): 86.6%
- viability, T/C (second compound 0.003 µM, first compound 0.316 µM): 85.7%
- viability, T/C (second compound 0.003 µM, first compound 1 µM): 74.5%
- viability, T/C (second compound 0.003 µM, first compound 3.16 µM): 85.4%
- viability, T/C (second compound 0.003 µM, first compound 10 µM): 45.2%
- viability, T/C (second compound 0.00949 µM, first compound 0.0316 µM): 94.4%
- viability, T/C (second compound 0.00949 µM, first compound 0.1 µM): 79.2%
- viability, T/C (second compound 0.00949 µM, first compound 0.316 µM): 77.6%
- viability, T/C (second compound 0.00949 µM, first compound 1 µM): 70.9%
- viability, T/C (second compound 0.00949 µM, first compound 3.16 µM): 98.3%
- viability, T/C (second compound 0.00949 µM, first compound 10 µM): 47.1%
- viability, T/C (second compound 0.03 µM, first compound 0.0316 µM): 76.8%
- viability, T/C (second compound 0.03 µM, first compound 0.1 µM): 94.1%
- viability, T/C (second compound 0.03 µM, first compound 0.316 µM): 88.9%
- viability, T/C (second compound 0.03 µM, first compound 1 µM): 73.4%
- viability, T/C (second compound 0.03 µM, first compound 3.16 µM): 76.1%
- viability, T/C (second compound 0.03 µM, first compound 10 µM): 56.5%
- viability, T/C (second compound 0.0949 µM, first compound 0.0316 µM): 90.4%
- viability, T/C (second compound 0.0949 µM, first compound 0.1 µM): 67.9%
- viability, T/C (second compound 0.0949 µM, first compound 0.316 µM): 75.8%
- viability, T/C (second compound 0.0949 µM, first compound 1 µM): 51.9%
- viability, T/C (second compound 0.0949 µM, first compound 3.16 µM): 89.6%
- viability, T/C (second compound 0.0949 µM, first compound 10 µM): 57%
- viability, T/C (second compound 0.3 µM, first compound 0.0316 µM): 61.5%
- viability, T/C (second compound 0.3 µM, first compound 0.1 µM): 73.4%
- viability, T/C (second compound 0.3 µM, first compound 0.316 µM): 60.4%
- viability, T/C (second compound 0.3 µM, first compound 1 µM): 61.5%
- viability, T/C (second compound 0.3 µM, first compound 3.16 µM): 59.2%
- viability, T/C (second compound 0.3 µM, first compound 10 µM): 39.9%

SMILES: CC(C)n1nc(-c2ccc3oc(N)nc3c2)c2c(N)ncnc21 + C#Cc1c(F)ccc2cc(O)cc(-c3ncc4c(N5CC6CCC(C5)N6)nc(OCC56CCCN5CC(F)C6)nc4c3F)c12
- IC50 (curve of first compound, second compound 0.0316 µM): 31.8 nM
- IC50 (curve of first compound, second compound 0.1 µM): 19 nM
- IC50 (curve of first compound, second compound 0.316 µM): 34.6 nM
- IC50 (curve of first compound, second compound 1 µM): 25 nM
- IC50 (curve of first compound, second compound 3.16 µM): 22.1 nM
- IC50 (curve of first compound, second compound 10 µM): 23.3 nM
- viability, T/C (second compound 0.0316 µM, first compound 0.000316 µM): 100%
- viability, T/C (second compound 0.0316 µM, first compound 0.001 µM): 106%
- viability, T/C (second compound 0.0316 µM, first compound 0.00316 µM): 88.6%
- viability, T/C (second compound 0.0316 µM, first compound 0.01 µM): 82.3%
- viability, T/C (second compound 0.0316 µM, first compound 0.0316 µM): 49%
- viability, T/C (second compound 0.0316 µM, first compound 0.1 µM): 19.8%
- viability, T/C (second compound 0.1 µM, first compound 0.000316 µM): 96.2%
- viability, T/C (second compound 0.1 µM, first compound 0.001 µM): 107%
- viability, T/C (second compound 0.1 µM, first compound 0.00316 µM): 65.4%
- viability, T/C (second compound 0.1 µM, first compound 0.01 µM): 69.2%
- viability, T/C (second compound 0.1 µM, first compound 0.0316 µM): 39%
- viability, T/C (second compound 0.1 µM, first compound 0.1 µM): 23.7%
- viability, T/C (second compound 0.316 µM, first compound 0.000316 µM): 98.3%
- viability, T/C (second compound 0.316 µM, first compound 0.001 µM): 78.5%
- viability, T/C (second compound 0.316 µM, first compound 0.00316 µM): 82.5%
- viability, T/C (second compound 0.316 µM, first compound 0.01 µM): 63.1%
- viability, T/C (second compound 0.316 µM, first compound 0.0316 µM): 61.7%
- viability, T/C (second compound 0.316 µM, first compound 0.1 µM): 20.1%
- viability, T/C (second compound 1 µM, first compound 0.000316 µM): 88%
- viability, T/C (second compound 1 µM, first compound 0.001 µM): 91.5%
- viability, T/C (second compound 1 µM, first compound 0.00316 µM): 86.4%
- viability, T/C (second compound 1 µM, first compound 0.01 µM): 55.9%
- viability, T/C (second compound 1 µM, first compound 0.0316 µM): 51.9%
- viability, T/C (second compound 1 µM, first compound 0.1 µM): 22%
- viability, T/C (second compound 3.16 µM, first compound 0.000316 µM): 91.9%
- viability, T/C (second compound 3.16 µM, first compound 0.001 µM): 87.7%
- viability, T/C (second compound 3.16 µM, first compound 0.00316 µM): 78.4%
- viability, T/C (second compound 3.16 µM, first compound 0.01 µM): 80%
- viability, T/C (second compound 3.16 µM, first compound 0.0316 µM): 36.6%
- viability, T/C (second compound 3.16 µM, first compound 0.1 µM): 21.5%
- viability, T/C (second compound 10 µM, first compound 0.000316 µM): 92.3%
- viability, T/C (second compound 10 µM, first compound 0.001 µM): 81.1%
- viability, T/C (second compound 10 µM, first compound 0.00316 µM): 80.8%
- viability, T/C (second compound 10 µM, first compound 0.01 µM): 68.9%
- viability, T/C (second compound 10 µM, first compound 0.0316 µM): 42.5%
- viability, T/C (second compound 10 µM, first compound 0.1 µM): 20.9%

SMILES: CC1(O)CCCC1n1c(=O)c(C(F)F)cc2cnc(NC3CCN(S(C)(=O)=O)CC3)nc21 (stereo unspecified)
- viability, T/C (compound 0.0316 µM): 102% [middle of 4 runs]
- viability, T/C (compound 0.1 µM): 77.6% [middle of 4 runs]
- viability, T/C (compound 0.316 µM): 70.4% [middle of 4 runs]
- viability, T/C (compound 1 µM): 72.5% [middle of 4 runs]
- viability, T/C (compound 3.16 µM): 57.5% [middle of 4 runs]
- viability, T/C (compound 10 µM): 2.58% [middle of 4 runs]
- IC50 (curve of compound): 2.72 µM [middle of 4 runs]
